Our source for the EC50 values is US9802927B2, “Oxadiazine compounds and methods of use thereof” (Denali Therapeutics, Inc., priority 2015, dated 2017).

Each structure is given as a SMILES string. A value given as a limit tells only on which side of the number the result lay.

In the first experiment the test system is Aβ42. As to the kind of experiment: In vitro cell screening assay in H4 cells expressing human APP751: Aβ42 by sandwich ELISA. The settings on record: Homo sapiens, compounds 0.003-10 μM, incubated overnight (16-18 h), sandwich ELISA of supernatant. In kind it is cell-based. In short, it runs like this: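 Secreted Aβ42 measured by sandwich ELISA, C-terminal-specific capture and 4G8-HRP detection, TMB read at 450 nm, from supernatants of APP751-expressing H4 cells exposed overnight (16-18 h) to 0.003-10 μM compound in Pro293 medium, 0.33% DMSO. Data scaled between DMSO and DAPT controls; EC50 from variable-slope nonlinear regression.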
In general terms: In an ELISA, binding on a coated surface is turned into a signal by an enzyme label.
The compound `COc1nc(C2=NOCC(c3ccc(S(C)(=O)=O)cc3)N2)ccc1-n1cnc(C)c1` (single isomer, unassigned; (-)) [Example 217A, (−)-3-(6-methoxy-5-(4-methyl-1H-imidazol-1-yl)pyridin-2-yl)-5-(4-(methylsulfonyl)phenyl)-5,6-dihydro-4H-1,2,4-oxadiazine] had a 50% effective concentration (EC50) greater than 3000 nM.

The same experiment, now with this note: compounds 0.003-10 μM, incubated overnight (16-18 h), sandwich ELISA of supernatant.
In turn, `COc1nc(C2=NOCC(c3cccc(S(C)(=O)=O)c3)N2)ccc1-n1cnc(C)c1` (single isomer, unassigned; (-)) [Example 214A, (−)-3-(6-methoxy-5-(4-methyl-1H-imidazol-1-yl)pyridin-2-yl)-5-(3-(methylsulfonyl)phenyl)-5,6-dihydro-4H-1,2,4-oxadiazine] gave an EC50 greater than 3000 nM.

As for `COc1nc(C2=NOCC(c3ccc4sc(C)nc4c3)N2)ccc1-n1cnc(C)c1` (single isomer, unassigned; (-)) [Example 215A, (−)-3-(6-methoxy-5-(4-methyl-1H-imidazol-1-yl)pyridin-2-yl)-5-(2-methylbenzo[d]thiazol-5-yl)-5,6-dihydro-4H-1,2,4-oxadiazine], the EC50 was found to be 2210 nM.

For `COc1nc(C2=NOCC(c3cn(C)c4cc(F)c(Cl)cc34)N2)ccc1-n1cnc(C)c1` (single isomer, unassigned; (-)) [Example 216A, (−)-5-(5-chloro-6-fluoro-1-methyl-1H-indol-3-yl)-3-(6-methoxy-5-(4-methyl-1H-imidazol-1-yl)pyridin-2-yl)-5,6-dihydro-4H-1,2,4-oxadiazine], a half-maximal response (EC50) required 89.5 nM.

On to `COc1nc(C2=NOCC(c3ccc(C)c(Cl)c3)N2)ccc1-n1cnc(C)c1` (single isomer, unassigned; (-)) [Example 218A, (−)-5-(3-chloro-4-methylphenyl)-3-(6-methoxy-5-(4-methyl-1H-imidazol-1-yl)pyridin-2-yl)-5,6-dihydro-4H-1,2,4-oxadiazine], for which a half-maximal response (EC50) required 1010 nM.

As for `COc1nc(C2=NOCC(c3cn(C(C)C)c4cc(F)ccc34)N2)ccc1-n1cnc(C)c1` (single isomer, unassigned; (-)) [Example 219B, (−)-5-(6-fluoro-1-isopropyl-1H-indol-3-yl)-3-(6-methoxy-5-(4-methyl-1H-imidazol-1-yl)pyridin-2-yl)-5,6-dihydro-4H-1,2,4-oxadiazine], the EC50 was determined as 194 nM.

Turning to `COc1nc(C2=NOCC(c3cn(C)c4ccc(F)c(F)c34)N2)ccc1-n1cnc(C)c1` (single isomer, unassigned; (-)) [Example 220A, (−)-5-(4,5-difluoro-1-methyl-1H-indol-3-yl)-3-(6-methoxy-5-(4-methyl-1H-imidazol-1-yl)pyridin-2-yl)-5,6-dihydro-4H-1,2,4-oxadiazine], the EC50 turned out to be 102 nM.

For the compound `COc1nc(C2=NOCC(c3cn(C)c4ccc(C5CC5)cc34)N2)ccc1-n1cnc(C)c1` (single isomer, unassigned; (-)) [Example 221A, (−)-5-(5-cyclopropyl-1-methyl-1H-indol-3-yl)-3-(6-methoxy-5-(4-methyl-1H-imidazol-1-yl)pyridin-2-yl)-5,6-dihydro-4H-1,2,4-oxadiazine], a half-maximal response (EC50) required 59.9 nM.

As for `COc1nc(C2=NOCC(c3cn(C4CC4)c4cccc(F)c34)N2)ccc1-n1cnc(C)c1` (single isomer, unassigned; (-)) [Example 222B, (−)-5-(1-cyclopropyl-4-fluoro-1H-indol-3-yl)-3-(6-methoxy-5-(4-methyl-1H-imidazol-1-yl)pyridin-2-yl)-5,6-dihydro-4H-1,2,4-oxadiazine], the response was half-maximal at 68.6 nM (EC50).

In the case of `COc1nc(C2=NOCC(c3cn(C)c4cc(F)c(F)cc34)N2)ccc1-n1cnc(C)c1` (single isomer, unassigned; (-)) [Example 223A, (−)-5-(5,6-difluoro-1-methyl-1H-indol-3-yl)-3-(6-methoxy-5-(4-methyl-1H-imidazol-1-yl)pyridin-2-yl)-5,6-dihydro-4H-1,2,4-oxadiazine], the EC50 was found to be 130 nM.

The compound `COc1nc(C2=NOCC(c3ccc4ncccc4c3)N2)ccc1-n1cnc(C)c1` (single isomer, unassigned; (-)) [Example 224A, (−)-3-(6-methoxy-5-(4-methyl-1H-imidazol-1-yl)pyridin-2-yl)-5-(quinolin-6-yl)-5,6-dihydro-4H-1,2,4-oxadiazine] returned an EC50 greater than 3000 nM.

In the case of `COc1nc(C2=NOCC(c3ccc4c(c3)OC(F)(F)O4)N2)ccc1-n1cnc(C)c1` (single isomer, unassigned; (-)) [Example 225A], the EC50 is greater than 3000 nM.

In the case of `COc1nc(C2=NOCC(c3cn(C)c4cc(F)cc(F)c34)N2)ccc1-n1cnc(C)c1` (single isomer, unassigned; (-)) [Example 226B, (−)-5-(4,6-difluoro-1-methyl-1H-indol-3-yl)-3-(6-methoxy-5-(4-methyl-1H-imidazol-1-yl)pyridin-2-yl)-5,6-dihydro-4H-1,2,4-oxadiazine], the half-maximal effective concentration (EC50) turned out to be 71.4 nM.

Regarding `COc1nc(C2=NOCC(c3ccc(C)cc3)N2)ccc1-n1cnc(C)c1` (single isomer, unassigned; (-)) [Example 227A, (−)-3-(6-methoxy-5-(4-methyl-1H-imidazol-1-yl)pyridin-2-yl)-5-(p-tolyl)-5,6-dihydro-4H-1,2,4-oxadiazine], the EC50 is 958 nM.

`COc1nc(C2=NOCC(c3cn(C4CC4)c4cc(F)ccc34)N2)ccc1-n1cnc(C)c1` (single isomer, unassigned; (-)) [Example 228A, (−)-5-(1-cyclopropyl-6-fluoro-1H-indol-3-yl)-3-(6-methoxy-5-(4-methyl-1H-imidazol-1-yl)pyridin-2-yl)-5,6-dihydro-4H-1,2,4-oxadiazine] came in with an EC50 of 262 nM.

Consider `COc1nc(C2=NOCC(c3cn(C)c4cccc(Cl)c34)N2)ccc1-n1cnc(C)c1` (single isomer, unassigned; (-)) [Example 229B, (−)-5-(4-chloro-1-methyl-1H-indol-3-yl)-3-(6-methoxy-5-(4-methyl-1H-imidazol-1-yl)pyridin-2-yl)-5,6-dihydro-4H-1,2,4-oxadiazine], for which the EC50 turned out to be 24.4 nM.

As to `COc1nc(C2=NOCC(c3cn(C)c4cccc(C(F)(F)F)c34)N2)ccc1-n1cnc(C)c1` (single isomer, unassigned; (-)) [Example 230B, (−)-3-(6-methoxy-5-(4-methyl-1H-imidazol-1-yl)pyridin-2-yl)-5-(1-methyl-4-(trifluoromethyl)-1H-indol-3-yl)-5,6-dihydro-4H-1,2,4-oxadiazine], a half-maximal effect (EC50) was put at 25.2 nM.

On to `COc1nc(C2=NOCC(c3cn(C)c4c(F)cccc34)N2)ccc1-n1cnc(C)c1` (single isomer, unassigned; (-)) [Example 231A, (−)-5-(7-fluoro-1-methyl-1H-indol-3-yl)-3-(6-methoxy-5-(4-methyl-1H-imidazol-1-yl)pyridin-2-yl)-5,6-dihydro-4H-1,2,4-oxadiazine], for which the EC50 was 229 nM.

Turning to `COc1nc(C2=NOCC(c3nn(C)c4ccc(Cl)cc34)N2)ccc1-n1cnc(C)c1` (single isomer, unassigned; (-)) [Example 232A, (−)-5-(5-chloro-1-methyl-1H-indazol-3-yl)-3-(6-methoxy-5-(4-methyl-1H-imidazol-1-yl)pyridin-2-yl)-5,6-dihydro-4H-1,2,4-oxadiazine], the EC50 turned out to be 278 nM.

In turn, `COc1nc(C2=NOCC(c3cn(C)c4ccc(C(F)(F)F)cc34)N2)ccc1-n1cnc(C)c1` (single isomer, unassigned; (-)) [Example 233A, (−)-3-(6-methoxy-5-(4-methyl-1H-imidazol-1-yl)pyridin-2-yl)-5-(1-methyl-5-(trifluoromethyl)-1H-indol-3-yl)-5,6-dihydro-4H-1,2,4-oxadiazine] gave an EC50 of 94.5 nM.

As for `COc1nc(C2=NOCC(c3cc4cc(C5CC5)ccc4o3)N2)ccc1-n1cnc(C)c1` (single isomer, unassigned; (-)) [Example 234A, (−)-5-(5-cyclopropylbenzofuran-2-yl)-3-(6-methoxy-5-(4-methyl-1H-imidazol-1-yl)pyridin-2-yl)-5,6-dihydro-4H-1,2,4-oxadiazine], the EC50 was 425 nM.

In the case of `COc1nc(C2=NOCC(c3ccc(C(C)(C)C)cc3)N2)ccc1-n1cnc(C)c1` (single isomer, unassigned; (-)) [Example 235A, (−)-5-(4-(tert-butyl)phenyl)-3-(6-methoxy-5-(4-methyl-1H-imidazol-1-yl)pyridin-2-yl)-5,6-dihydro-4H-1,2,4-oxadiazine], a half-maximal response (EC50) required 763 nM.

With `COc1nc(C2=NOCC(c3cc4ccc(C5CC5)cc4o3)N2)ccc1-n1cnc(C)c1` (single isomer, unassigned; (-)) [Example 236A, (−)-5-(6-cyclopropylbenzofuran-2-yl)-3-(6-methoxy-5-(4-methyl-1H-imidazol-1-yl)pyridin-2-yl)-5,6-dihydro-4H-1,2,4-oxadiazine], the EC50 was found to be 397 nM.

`COc1nc(C2=NOCC(c3cn(C)c4ccc(Cl)c(F)c34)N2)ccc1-n1cnc(C)c1` (single isomer, unassigned; (-)) [Example 237B, (−)-5-(5-chloro-4-fluoro-1-methyl-1H-indol-3-yl)-3-(6-methoxy-5-(4-methyl-1H-imidazol-1-yl)pyridin-2-yl)-5,6-dihydro-4H-1,2,4-oxadiazine]: the EC50 came out at 47.1 nM.

Regarding `COc1nc(C2=NOCC(c3ccc4nc(C)sc4c3)N2)ccc1-n1cnc(C)c1` (single isomer, unassigned; (-)) [Example 238A, (−)-3-(6-methoxy-5-(4-methyl-1H-imidazol-1-yl)pyridin-2-yl)-5-(2-methylbenzo[d]thiazol-6-yl)-5,6-dihydro-4H-1,2,4-oxadiazine], the EC50 was greater than 3000 nM.

Regarding `COc1nc(C2=NOCC(c3ccc(Cl)c(C4CC4)c3)N2)ccc1-n1cnc(C)c1` (single isomer, unassigned; (-)) [Example 239A, (−)-5-(4-chloro-3-cyclopropylphenyl)-3-(6-methoxy-5-(4-methyl-1H-imidazol-1-yl)pyridin-2-yl)-5,6-dihydro-4H-1,2,4-oxadiazine], the concentration for a half-maximal effect (EC50) stood at 920 nM.

One may read the EC50 as the concentration giving half of the maximal effect.
